# Values joined by “and” are separate entries in the source; they are usually repeats but may differ in a detail not shown here. Equal values may be shown once.
# How the values were obtained:
# PTBP1 in HGADFN003 cells = experiment: PTBP1 nuclear membrane localization in HGADFN003 cells; format: cell-based, human; settings: HGADFN003, UPCP
# Experimental: (§1) Immunofluorescence was performed as described previously. Cells were plated on cover slips in 12-well plates, left overnight before the treatment. Cells were fixed in 1% formaldehyde in culture medium for 10 min at 37 °C and permeabilized with 0.2% Triton X-100 in PBS for 10 min at room temperature. Cells were washed twice in PBS and blocked for 1 h with 5% BSA in PBS and then incubated with primary antibodies at 4 °C overnight, washed three times in PBS and incubated with secondary antibodies for 1 h at room temperature. Cell nuclei were counterstained with a 500 nM concentration of 4,6-diamidino-2-phenylindole (DAPI) (Sigma). Images were acquired by a fluorescence microscope (OLYMPUS FV-1000, Carl Zeiss LSM880 or Leica DMi8) and analyzed with software NIS-Elements AR v.5.0.1 (Nikon), FLUOVIEW v.4.2b (OLYMPUS), ZEN v.2.3 SP1 (Carl Zeiss) and Leica Application Suite X v.3.6.0.24 (Leica). Cells were quantified by investigators who were blinded to the identity of the analyzed cell.
# IMR90 cells = experiment: Cell survival rate analysis in IMR90 cells; format: cell-based, human; settings: Fig. 5o, 48h
# Experimental: Cell viability was assessed using the Cell Counting Kit-8 (CCK8) (APE, catalog no. k1018). The cells were plated in triplicate in 96-well plates (typically 10,000 cells per 100 μl per well) and were incubated with fresh medium for 24 h. Then, the cells were incubated with different concentrations (0 μM, 10 μM, 20 μM, 30 μM) of UPCP for 0 h, 24 h, 48 h or 72 h. CCK8 solution (10 μl) was added to the well for a 2 h incubation at 37 °C. Absorbance was measured at 450 nm with a 96-well plate reader (Tecan Infinite M NANO^+). Data were analyzed and further processed in i-control v.2.0 and GraphPad Prism v.7.
# [1] = tested on: muscle of Lmna^G609G/G609G mice; experiment: Masson staining of muscle (fibrosis); format: in vivo, mouse; settings: 13 weeks
# Experimental: For UPCP injection, 14-day-old Lmna^G609G/G609G mice were injected intraperitoneally with either PBS or UPCP (20 mg kg^–1, every other day) and wild-type mice were injected with PBS. […] Bodyweight and lifespan were monitored after UPCP treatment. The survival rate was analyzed by the Kaplan–Meier method. We only included mice that were of sufficient bodyweight at the start of the experiment, typically at least 80% of the average littermate weight of the same sex and genotype. All animals meeting criteria for inclusion were then divided randomly into three groups according to genotype (Lmna^+/+, Lmna^G609G/G609G-Mock and Lmna^G609G/G609G-UPCP).
# For histological analyses, mice of the indicated genotypes were perfused with PBS, then with 4% paraformaldehyde (PFA). Whole organs were incubated in 4% PFA at 4 °C for 16 h. All samples were paraffin embedded and sectioning by Servicebio. Subsequently, the tissues were deparaffinized and rehydrated before hematoxylin-eosin (HE) or Masson staining or immunohistochemistry (IHC). HE staining was performed using an HE Kit (Absin, catalog no. abs9217), and Masson staining was performed using Masson’s Trichrome Stain Kit (Absin, catalog no. abs9347) according to the manufacturer’s instructions. The thickness of the layers or the areas of fibrosis in the tissues were calculated using ImageJ software by a blinded investigator. For IHC, the sections were completed by the Servicebio. The images were acquired by a microscope (Leica DMi8) and analyzed with Leica Application Suite X v.3.6.0.24 (Leica). For BubR1, cytoplasmic staining in cells was scored on the intensity of staining and the proportion of positive cells by a blinded investigator. The intensity of the staining was graded as 0 (negative, no color), 1 (low positive, light yellow), 2 (positive, brown yellow) or 3 (high positive, brown), and the number of positive cells was graded as 0 (<5%), 1 (5–25%), 2 (25–50%), 3 (51–75%) or 4 (>75%). The final score was defined as staining number score multiplied by staining color score. For lamin B1, p21 or IL-6, the proportion of positive cells was used to quantify the expression of protein in tissues by a blinded investigator.
# HGADFN003 cells = experiment: Ki67 immunofluorescence of HGADFN003 cells; format: cell-based, human; settings: for Relative percentage of Ki67 positive cells: Fig. 5b, Mock 32, 39, 45, P=0.0148; for Ki67 positive cells: HGADFN003, Extended Data Fig. 10e
# Experimental: as §1
# PTBP1 = molecular target: T1, PTBP1 (Homo sapiens, UniProt P26599); experiment: Pulldown assay of UPCP and PTBP1; format: binding; settings: pulldown (and MST); His-UPCP 10 μg with Flag beads-PTBP1, 16 h at 4 °C
# T1 construct: made in house
# T1 sequence (P26599 whole entry): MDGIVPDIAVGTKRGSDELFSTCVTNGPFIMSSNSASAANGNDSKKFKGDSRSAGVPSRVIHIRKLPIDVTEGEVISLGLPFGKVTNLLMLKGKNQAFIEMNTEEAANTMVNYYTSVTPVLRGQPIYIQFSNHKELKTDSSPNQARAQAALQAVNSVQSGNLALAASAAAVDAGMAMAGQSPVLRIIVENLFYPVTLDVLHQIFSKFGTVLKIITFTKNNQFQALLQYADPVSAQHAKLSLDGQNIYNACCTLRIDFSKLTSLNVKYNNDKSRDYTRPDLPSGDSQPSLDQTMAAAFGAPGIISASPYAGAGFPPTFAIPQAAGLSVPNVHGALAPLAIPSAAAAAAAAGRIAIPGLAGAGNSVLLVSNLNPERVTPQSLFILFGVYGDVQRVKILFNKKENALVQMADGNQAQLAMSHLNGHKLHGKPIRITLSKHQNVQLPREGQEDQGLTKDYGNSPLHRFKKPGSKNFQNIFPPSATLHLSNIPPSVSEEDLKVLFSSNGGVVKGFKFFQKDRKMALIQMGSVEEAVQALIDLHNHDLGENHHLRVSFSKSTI
# Experimental: Cells were harvested and lysed in buffer A mixed with protease inhibitor cocktail tablet (Roche) after 48 h. […] The beads were washed three times using 1× Tris saline buffer (50 mM Tris-HCl (pH 7.4) and 150 mM NaCl)) for 8 min each. The bound proteins BUBR1 or PTBP1 were eluted with 3×Flag peptide (ApexBio) for 2 h at 4 °C. Finally, BUBR1 or PTBP1 was concentrated and recovered by using the Centrifugal Filters (Amicon Ultra).
# A detailed description of the pulldown assay was described previously. His-UPCP fusion protein was expression in bacteria (BL21) and induced with 0.5 mM isopropyl-β-D-thio-galactoside for 16 h at 16 °C. The bacteria were harvested and lysed in TEN buffer (20 mM Tris-HCl (pH7.4), 0.1mM EDTA, 100 mM NaCl). […] His-UPCP was eluted with Imidazole eluent (50 mM NaH2PO4, 300 mM NaCl and 50 mM Imidazole) for 2 h at 4 °C and concentrated and recovered using centrifugal filters (Amicon Ultra). For the pulldown of His-UPCP and Flag-BUBR1 or Flag-PTBP1, 10 μg His-UPCP was incubated with Flag beads (Biotool, catalog no. B23102), Flag beads-BUBR1 or Flag beads-PTBP1 respectively for 16 h at 4 °C. The beads were washed three times with PBS and added to 1× loading buffer for western blot.
substance,measurement,setting,value
"H-YGRKKRRQRRRYNLRSRTVLCGTCGQPADKASASGSGAQSPQNCSIM-OH (cysteines drawn unpaired) [UPCP, unique progerin C-terminal peptide]",PTBP1 nuclear membrane location cells,PTBP1 in HGADFN003 cells; replicate 1,45%
same,PTBP1 nuclear membrane location cells,PTBP1 in HGADFN003 cells; replicate 2,39%
same,PTBP1 nuclear membrane location cells,PTBP1 in HGADFN003 cells; replicate 3,35%
same,Cell survival rate analysis (UPCP-OD/Mock-OD),"IMR90 cells; 10μM, UPCP-0μM = 1, P=0.1549, replicate 1",0.9983
same,Cell survival rate analysis (UPCP-OD/Mock-OD),"IMR90 cells; 10μM, UPCP-0μM = 1, P=0.1549, replicate 2",1.052
same,Cell survival rate analysis (UPCP-OD/Mock-OD),"IMR90 cells; 10μM, UPCP-0μM = 1, P=0.1549, replicate 3",1.032
same,Cell survival rate analysis (UPCP-OD/Mock-OD),"IMR90 cells; 20μM, UPCP-0μM = 1, P=0.2306, replicate 1",1.032
same,Cell survival rate analysis (UPCP-OD/Mock-OD),"IMR90 cells; 20μM, UPCP-0μM = 1, P=0.2306, replicate 2",1.043
same,Cell survival rate analysis (UPCP-OD/Mock-OD),"IMR90 cells; 20μM, UPCP-0μM = 1, P=0.2306, replicate 3",1.31
same,Cell survival rate analysis (UPCP-OD/Mock-OD),"IMR90 cells; 30μM, UPCP-0μM = 1, P=0.4981, replicate 1",0.9716
same,Cell survival rate analysis (UPCP-OD/Mock-OD),"IMR90 cells; 30μM, UPCP-0μM = 1, P=0.4981, replicate 2",1.072
same,Cell survival rate analysis (UPCP-OD/Mock-OD),"IMR90 cells; 30μM, UPCP-0μM = 1, P=0.4981, replicate 3",1.021
same,"fibrosis, muscle",[1]; 20 mg kg^–1 i.p. every other day,decrease of fibrosis in the muscle
same,"fibrosis area/ total area, muscle","[1]; 20 mg kg^–1 i.p., replicate 1",0.003895 and 0.3895%
same,"fibrosis area, muscle","[1]; 20 mg kg^–1 i.p., replicate 1, total area 340.18",1.325
same,"fibrosis area, muscle","[1]; 20 mg kg^–1 i.p., replicate 2, total area 353.151",1.196
same,"fibrosis area, muscle","[1]; 20 mg kg^–1 i.p., replicate 3, total area 365.081",2.133
same,Relative percentage of Ki67 positive cells,"HGADFN003 cells; HGADFN003, replicate 1",54%
same,Relative percentage of Ki67 positive cells,"HGADFN003 cells; HGADFN003, replicate 2",62%
same,Relative percentage of Ki67 positive cells,"HGADFN003 cells; HGADFN003, replicate 3",68%
same,"Ki67 expression (FTI-277/UPCP comparison, words)",HGADFN003 cells; HGADFN003,"increasing expression of BUBR1, CyclinA2 and Ki67"
same,Ki67 positive cells,HGADFN003 cells; replicate 1,65%
same,Ki67 positive cells,HGADFN003 cells; replicate 2,55%
same,Ki67 positive cells,HGADFN003 cells; replicate 3,72%
same,Ki67 positive staining,HGADFN003 cells; HGPS cells,increased Ki67 positive staining
same,combination with PTBP1,PTBP1,combined with PTBP1

# — paper PMC10154249, “Unique progerin C-terminal peptide ameliorates Hutchinson–Gilford progeria syndrome phenotype by rescuing BUBR1” (Nature Aging, 2023)
